How the values were obtained:
[1] = test system: human nasopharyngeal cancer cell line KB; assay: Cytotoxicity test of conjugate LDC13B; format: cell-based; conditions: KB, incubated 15-30 min, then 2-3 days
Protocol: (§1) Culture medium: RPMI 1640 Medium, no folic acid
1) human nasopharyngeal cancer cell line KB, human colon carcinoma HCT-116, human prostatic cancer cell PC-3, human gastric cancer cell line GTL-16, human endometrial cancer cell HEC-1A, and human gastric cancer cell N87 were incubated at 37° C., 5% CO2 in RPMI 1640 medium containing 10% fetal bovine serum, the cells were passaged every 2-3 days.
2) human nasopharyngeal cancer cell line KB, human colon carcinoma HCT-116, human prostatic cancer cell PC-3, human gastric cancer cell line GTL-16, human endometrial cancer cell HEC-1A, and human gastric cancer cell N87 were plated at 1×10^3 cells per well (96-well plate) and incubated for 8-12 h at 37° C., 5% CO2.
(§2) 3) Stock solutions of LDC conjugates or control were prepared in PBS solution. 100 μL/well of serially diluted LDC conjugates or control was added to the cells in the plate and incubated for 15-30 min at 37° C., 5% CO2. The culture medium in the wells was then removed by aspiration and the cells were incubated in fresh culture medium without conjugates (150 μL/well) for 2-3 days at 37° C., 5% CO2.
(§3) 4) CellTiter 96® Aqueous One Solution Cell Proliferation Assay (Promega) was added to each well to measure the amount of […] cells, and the plate was incubated in an incubator for 1 h at 37° C., 5% CO2.
(§4) 5) the plate was read at 490 nm on a microplate reader, and the cell survivals were compared for cells with or without the treatment of LDC conjugates. The LDC drug concentrations that are required for 50% cell death (IC50 values) were determined.

melanoma cell line A375 [2] = assay: Cytotoxicity test of conjugate LDC1013; format: cell-based; conditions: A375, incubated 15-30 min, then 2-3 days
Protocol: as §1
(§5) 1) human nasopharyngeal cancer cell line KB, melanoma cell line A375, and human lung cancer cell H460 were incubated at 37° C., 5% CO2 in RPMI 1640 medium containing 10% fetal bovine serum, the cells were passaged every 2-3 days.
(§6) 2) human nasopharyngeal cancer cell line KB, melanoma cell line A375, and human lung cancer cell H460 were plated at 1×10^3 cells per well (96-well plate) and incubated for 8-12 h at 37° C., 5% CO2.
as §2, §3, §4

[3] = test system: human nasopharyngeal cancer cell line KB; assay: Cytotoxicity test of conjugate LDC1013; format: cell-based; conditions: incubated 15-30 min, then 2-3 days
Protocol: as §1, §5, §6, §2, §3, §4

[4] = test system: human lung cancer cell H460; assay: Cytotoxicity test of conjugate LDC1013; format: cell-based; conditions: H460, incubated 15-30 min, then 2-3 days
Protocol: as §1, §5, §6, §2, §3, §4

[5] = test system: ovarian cancer cell SKOV3; assay: Cytotoxicity test of conjugate LDC11B; format: cell-based, human; conditions: SKOV3, incubated 15-30 min, then 2-3 days
Protocol: as §1
(§7) 1) human lung cancer cell H460, ovarian cancer cell SKOV3, human embryonic kidney cell 293A were incubated at 37° C., 5% CO2 in RPMI 1640 medium containing 10% fetal bovine serum, the cells were passaged every 2-3 days.
(§8) 2) human lung cancer cell H460, ovarian cancer cell SKOV3, human embryonic kidney cell 293A were plated at 1×10^3 cells per well (96-well plate) and incubated for 8-12 h at 37° C., 5% CO2.
as §2, §3
(§9) 5) The plate was read at 490 nm on a microplate reader, and the cell survivals were compared for cells with or without the treatment of LDC conjugates. The LDC drug concentrations that are required for 50% cell death (IC50 values) were determined.

[6] = test system: chronic myeloid leukemia cell line K562; assay: Cytotoxicity test of conjugate LDC10B; format: cell-based; conditions: K562, Incubation Time 30 min
Protocol: as §1
(§10) 1) human nasopharyngeal cancer cell line KB, melanoma cell line A375, human lung cancer cell H1299, chronic myeloid leukemia cell line K562, human lung cancer cell H460, ovarian cancer cell SKOV3, breast cancer cell line HCC1954, human gastric cancer cell N87, and human breast cancer cell SK-BR-3 were incubated at 37° C., 5% CO2 in RPMI 1640 medium containing 10% fetal bovine serum, the cells were passaged every 2-3 days.
(§11) 2) human nasopharyngeal cancer cell line KB, melanoma cell line A375, human lung cancer cell H1299, chronic myeloid leukemia cell line K562, human lung cancer cell H460, ovarian cancer cell SKOV3, breast cancer cell line HCC1954, human gastric cancer cell N87, and human breast cancer cell SK-BR-3 were plated at 1×10^3 cells per well (96-well plate) and incubated for 8-12 h at 37° C., 5% CO2.
(§12) 3) Stock solutions of LDC conjugates or controls were prepared in PBS solution. 100 μL/well of serially diluted LDC conjugates or controls was added to the test cells in the plates and incubated for 15-30 min at 37° C., 5% CO2. The culture medium in the wells was then removed by aspiration and the test cells were incubated in fresh culture medium without conjugates (150 μL/well) for 2-3 days at 37° C., 5% CO2.
(§13) 4) CellTiter 96® Aqueous One Solution Cell Proliferation Assay (Promega) was added to each well to measure the amount of […] cells, and each plate was incubated in an incubator for 1 h at 37° C., 5% CO2.
(§14) 5) Each plate was read at 490 nm on a microplate reader, and the cell survivals were compared for test cells with or without the treatment of LDC conjugates. The LDC drug concentrations that are required for 50% cell death (IC50 values) were determined.

melanoma cell line A375 [7] = assay: Cytotoxicity test of conjugate LDC10B; format: cell-based; conditions: A375, Incubation Time 15 min
Protocol: as §1, §10, §11, §12, §13, §14

[8] = test system: human nasopharyngeal cancer cell line KB; assay: Cytotoxicity test of conjugate LDC10B; format: cell-based; conditions: Incubation Time 15 min
Protocol: as §1, §10, §11, §12, §13, §14

[9] = test system: human breast cancer cell SK-BR-3; assay: Cytotoxicity test of conjugate LDC10B; format: cell-based; conditions: SK-BR-3, Incubation Time 30 min
Protocol: as §1, §10, §11, §12, §13, §14

[10] = test system: human gastric cancer cell N87; assay: Cytotoxicity test of conjugate LDC10B; format: cell-based; conditions: N87, Incubation Time 30 min
Protocol: as §1, §10, §11, §12, §13, §14

[11] = test system: human lung cancer cell H460; assay: Cytotoxicity test of conjugate LDC10B; format: cell-based; conditions: H460, Incubation Time 30 min
Protocol: as §1, §10, §11, §12, §13, §14

[12] = test system: human lung cancer cell H1299; assay: Cytotoxicity test of conjugate LDC10B; format: cell-based; conditions: H1299, Incubation Time 30 min
Protocol: as §1, §10, §11, §12, §13, §14

[13] = test system: breast cancer cell line HCC1954; assay: Cytotoxicity test of conjugate LDC10B; format: cell-based, human; conditions: HCC1954, Incubation Time 30 min
Protocol: as §1, §10, §11, §12, §13, §14

[14] = test system: ovarian cancer cell SKOV3; assay: Cytotoxicity test of conjugate LDC10B; format: cell-based, human; conditions: SKOV3, Incubation Time 30 min
Protocol: as §1, §10, §11, §12, §13, §14

[15] = test system: breast cancer cell line HCC1954; assay: Cytotoxicity test of conjugate LDC10H; format: cell-based, human; conditions: HCC1954, incubated 15-30 min, then 2-3 days
Protocol: as §1
(§15) 1) human lung cancer cell H1299, ovarian cancer cell SKOV3, breast cancer cell line HCC1954, and human lung cancer cell H460 were incubated at 37° C., 5% CO2 in RPMI 1640 medium containing 10% fetal bovine serum, the cells were passaged every 2-3 days.
(§16) 2) human lung cancer cell H1299, ovarian cancer cell SKOV3, breast cancer cell line HCC1954, and human lung cancer cell H460 were plated at 1×10^3 cells per well (96-well plate) and incubated for 8-12 h at 37° C., 5% CO2.
as §2, §3, §4

[16] = test system: ovarian cancer cell SKOV3; assay: Cytotoxicity test of conjugate LDC10H; format: cell-based, human; conditions: SKOV3, incubated 15-30 min, then 2-3 days
Protocol: as §1, §15, §16, §2, §3, §4

[17] = test system: human lung cancer cell H460; assay: Cytotoxicity test of conjugate LDC10H; format: cell-based; conditions: H460, incubated 15-30 min, then 2-3 days
Protocol: as §1, §15, §16, §2, §3, §4

[18] = test system: human lung cancer cell H1299; assay: Cytotoxicity test of conjugate LDC10H; format: cell-based; conditions: H1299, incubated 15-30 min, then 2-3 days
Protocol: as §1, §15, §16, §2, §3, §4

[19] = test system: human embryonic kidney cell 293A; assay: Cytotoxicity test of conjugate LDC11B; format: cell-based; conditions: incubated 15-30 min, then 2-3 days
Protocol: as §1, §7, §8, §2, §3, §9

[20] = test system: human lung cancer cell H460; assay: Cytotoxicity test of conjugate LDC11B; format: cell-based; conditions: H460, incubated 15-30 min, then 2-3 days
Protocol: as §1, §7, §8, §2, §3, §9

Folate-(PEG)3-MC-Val-Cit-PAB-MMAE [LDC1]
IC50 [1]: 0.065 µM | IC50 (melanoma cell line A375 [2]): 37 µM | IC50 [3]: 4 µM | IC50 [4]: 9.4 µM | IC50 [5]: 0.295 µM | IC50 [6]: 0.0931 µM | IC50 (melanoma cell line A375 [7]): 10 µM | IC50 [8]: 15 µM | IC50 [9]: 0.0982 µM | IC50 [10]: 0.239 µM | IC50 [11]: 0.192 µM | IC50 [12]: 0.262 µM | IC50 [13]: 0.0944 µM | IC50 [14]: 0.102 µM | IC50 [15]: 0.0779 µM | IC50 [16]: 0.201 µM | IC50 [17]: 0.137 µM | IC50 [18]: 0.186 µM | IC50 [19]: 0.715 µM | IC50 [20]: 0.526 µM

Source: patent US11571480B2, “Multi-ligand drug conjugates and uses thereof” (priority 2015, dated 2023)
